Each structure is given as a SMILES string.

Here are results for 2 molecules from US5480990A, “Bicyclopolyazamacrocyclocarboxylic acid complexes for use as contrast agents” (The Dow Chemical Company, priority 1993, dated 1996).

For data set [1] the following is noted: commercial contrast agent, background; cited from earlier work.
Data set [2] can be described thus: Biodistribution: % injected dose in several tissues of Sprague Dawley rats, 30 min after tail vein injection. It counts as in vivo. The note with it: rat. As to the method: Sprague Dawley rats were allowed to acclimate for five days then injected with 100 μL of the complex solution via a tail vein. The rats weighed between 150 and 200 g at the time of injection. After 30 min. the rats were killed by cervical dislocation and dissected. The amount of radioactivity in each tissue was determined by counting in a NaI scintillation counter coupled to a multichannel analyzer. The counts were compared to the counts in 100 μL standards in order to determine the percentage of the dose in each tissue or organ.
The percent dose in blood was estimated assuming blood to be 7% of the body weight. The percent dose in bone was estimated by multipuling the percent dose in the femur by 25. The percent dose in muscle was estimated assuming muscle to be 43% of the body weight.
In addition to organ biodistribution, chelates of the compounds of Formula (I) were evaluated for efficiency of bone localization since phosphonates are known for their ability to bind to hydroxyapatite.
The percent of the injected dose of complex of Example 1 (^159 Gd-PCTA) in several tissues are given in Table I. The numbers represent the average of 5 rats? per data point.

A short description of data set [3]: Imaging experiments (MRI) in rat, kidney enhancement. The data set is classed as in vivo, Sprague Dawley rat. The note with it: intramuscular, 0.05-0.1 mmol Gd/kg body weight.
Description: Injectable solutions were first prepared (0.5M) by dissolving the appropriate amount of each complex in 2 mL of deionized water. The pH of the solutions were then adjusted to 7.4 using 1M HCl or NaOH as needed. The total Gd content of each solution was then determined by ICP analysis.
An anethized Sprague Dawley rat was injected intramuscularly with one of the metal solutions described above at a dose of 0.05-0.1 mmol Gd/kg body weight. Images were then taken at various time intervals and compared with a non-injected control at time 0.
Data set [4] is described as follows: Percent metal as a complex (Sephadex column, 159Gd tracer). It counts as physicochemical. As for the experimental part: A stock ^159 GdCl3 solution was prepared by adding 2 μL of 3×10^-4 M ^159 GdCl3 in 0.1N HCl to 2 mL of a 3×10^-4 M GdCl3 carrier solution. Appropriate ligand solutions were then prepared in deionized water. The 1:1 ligand/metal complexes were then prepared by combining the ligands (dissolved in 100-500 μL of deionized water) with 2 mL of the stock 159GDCl3 solution, followed by through mixing to give an acidic solution (pH=2). The pH of the solution was then raised to 7.0 using 0.1N NaOH. The percent metal as a complex was then determined by passing a sample of the complex solution through a Sephadex™ G-50 column, eluting with 4:1 saline ([…]) and collecting 2×3 mL fractions. The amount of radioactivity in the combined elutions was then compared with that left on the resin (non-complexed metal is retained on the resin). […]
A solution of the ligand of Example D was prepared by dissolving 3.8 mg of ligand/0.517 mL of deionized water (pH=2). […] After thorough mixing, the percent metal as a complex was determined by passing a sample of the complex solution through a Sephadex™ column, eluting with 4:1 saline (0.85% NaCl/NH4 OH), and collecting 2×3 mL fractions. The amount of radioactivity in the combined elutions was then compared with that left on the resin. […] By this method complexation was determined to be 92%. […] The pH stability was then determined using the General Procedure above.

Regarding `CNC[C@H](O)[C@@H](O)[C@H](O)[C@H](O)CO.CNC[C@H](O)[C@@H](O)[C@H](O)[C@H](O)CO.O=C([O-])CN(CCN(CC(=O)[O-])CC(=O)O)CCN(CC(=O)[O-])CC(=O)O.[Gd+3]` [Magnevist, complex of gadolinium with diethylenetriaminepentaacetic acid], in data set [1], the distribution result is on record as “freely distributes in extracellular fluid” and the elimination result is recorded as “efficient elimination through the renal system”.
`O=C([O-])CN1CCN(CC(=O)[O-])Cc2cccc(n2)CN(CC(=O)[O-])CC1.[159Gd+3]` [Gd-PCTA, ^159 Gd-3,6,9,15-tetraazabicyclo[9.3.1]pentadeca-1(15),11,13-triene-3,6,9-trimethylenecarboxylic acid]: in data set [2] (blood (assumed 7% of body weight), 100 μL tail vein, average of 5 rats), the “% injected dose in blood, average” value stood at 5.10 % INJECTED DOSE. The “% injected dose in bone, average” value in data set [2] (bone (femur x 25), 100 μL tail vein, average of 5 rats) amounted to 7.38 % INJECTED DOSE. For the same molecule, in data set [2] (kidney, 100 μL tail vein, average of 5 rats), the “% injected dose in kidney, average” value was 1.81 % INJECTED DOSE. Also, in data set [2] (liver, 100 μL tail vein, average of 5 rats), the “% injected dose in liver, average” value amounted to 0.78 % INJECTED DOSE. For the same molecule, the “% injected dose in muscle, average” value in data set [2] (muscle (assumed 43% of body weight), 100 μL tail vein, average of 5 rats) is 7.76 % INJECTED DOSE. For the same molecule, in data set [2] (ratio of % dose/g), the “bone to blood ratio (% dose/g)” value is recorded as 7, the “bone to liver ratio” value was 3.5 and the “bone to muscle ratio” value is listed as 4.8. For the same molecule, the “% injected dose in spleen, average” value in data set [2] (spleen, 100 μL tail vein, average of 5 rats) was found to be 0.05 % INJECTED DOSE. Also, the “uptake by the renal system” value in data set [3] is on record as “rapidly taken up by the renal system”. In data set [3] (vs non-injected control at time 0), the “enhancement of the kidney image” value is given as “brilliant enhancement of the kidney cortex as well as peripheral kidney tissue”. For the same molecule, the “complexation after passing through the resin” value in data set [4] (1:1 ligand to metal ratio, after passing through the resin) is listed as “greater than 98%”. Also, the “complexation (percent metal as a complex)” value in data set [4] (1:1 ligand/metal, before passing through the resin) was determined as 92%.
